The results in this text go back to PMC3830718 (Toxicology and applied pharmacology, 2013).

What is called AUC(0-t) is the area under the concentration-time curve up to a stated or last time point. Higher therefore signals more exposure. By Ki is commonly meant a dissociation constant, usually derived from enzyme kinetics or from competition with a known ligand. Low readings indicate a stronger hold on the target, high ones a looser hold on the target.

The format of data set [1] is in vivo, mice. The conditions noted are these: mouse, kidney, intraperitoneal, 7.5 mg/kg, Metformin accumulation in the kidney.
Another data set is described as follows: in vivo. The note with it: mouse, AUC0–120min of metformin.
In another data set the target is T1, mouse Oct2 (mOct2) (Mus musculus, UniProt O70577).
T1 sequence (O70577 1-553): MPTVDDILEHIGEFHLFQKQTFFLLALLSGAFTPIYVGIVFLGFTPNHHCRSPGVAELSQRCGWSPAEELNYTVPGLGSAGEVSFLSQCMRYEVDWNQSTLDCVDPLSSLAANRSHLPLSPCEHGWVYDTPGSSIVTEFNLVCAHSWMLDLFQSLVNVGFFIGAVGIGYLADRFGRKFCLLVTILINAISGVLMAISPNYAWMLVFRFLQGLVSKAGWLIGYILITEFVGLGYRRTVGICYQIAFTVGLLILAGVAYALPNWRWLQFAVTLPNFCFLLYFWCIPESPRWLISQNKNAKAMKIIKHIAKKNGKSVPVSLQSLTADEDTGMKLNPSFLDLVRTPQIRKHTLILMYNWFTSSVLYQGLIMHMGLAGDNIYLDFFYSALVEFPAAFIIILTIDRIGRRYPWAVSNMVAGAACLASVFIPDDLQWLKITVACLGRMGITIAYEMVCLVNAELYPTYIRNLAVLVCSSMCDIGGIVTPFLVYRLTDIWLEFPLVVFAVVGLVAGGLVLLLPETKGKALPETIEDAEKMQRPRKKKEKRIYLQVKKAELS
Kind of data set: Inhibition of metformin accumulation in HEK-293 cells stably expressing mOct2. Type of data set: cell-based.

For data set [2] the following is noted: mouse, in vivo, 10 mg/kg.
The next data set concerns the target mouse Mate1 (mMate1) (Mus musculus, UniProt Q8K0H1). In words: Inhibition of metformin accumulation in HEK-293 cells stably expressing mMate1. Format: cell-based.

Like-named read-outs stand apart in the source and are kept apart here.

mouse Mate1 (mMate1), sequence (Q8K0H1 whole entry): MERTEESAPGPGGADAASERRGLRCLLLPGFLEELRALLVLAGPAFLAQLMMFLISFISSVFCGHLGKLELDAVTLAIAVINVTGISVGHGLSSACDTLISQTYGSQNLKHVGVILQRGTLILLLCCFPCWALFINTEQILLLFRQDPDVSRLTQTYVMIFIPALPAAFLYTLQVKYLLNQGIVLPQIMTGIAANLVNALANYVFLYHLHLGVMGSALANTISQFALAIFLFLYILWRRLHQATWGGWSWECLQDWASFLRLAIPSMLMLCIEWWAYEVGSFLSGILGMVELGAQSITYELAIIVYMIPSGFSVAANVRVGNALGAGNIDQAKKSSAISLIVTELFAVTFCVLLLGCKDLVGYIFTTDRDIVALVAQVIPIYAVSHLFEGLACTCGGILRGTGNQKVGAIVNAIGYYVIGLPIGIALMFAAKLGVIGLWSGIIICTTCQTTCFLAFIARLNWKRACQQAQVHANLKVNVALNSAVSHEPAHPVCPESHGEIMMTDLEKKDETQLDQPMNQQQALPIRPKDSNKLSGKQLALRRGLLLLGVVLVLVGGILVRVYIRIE

Turning to `CN(C)C(=N)N=C(N)N` [metformin], the concentration at 30 min was 917 ± 89.6 ng/g in data set [1] (Mate1−/− mice, saline (Fig. 4A)) and 114 ± 21.8 ng/g in data set [1] (wild-type mice, saline, genotype study (Fig. 4A)). In the data set “in vivo”, this compound had an AUC(0-t) of 2030 ng·h/mL.

On to `Cc1nccn1CC1CCc2c(c3ccccc3n2C)C1=O` (stereo not drawn) [ondansetron], for which the Ki at mouse Oct2 (mOct2) is 3.5 µM; on mouse Mate1 (mMate1), 0.07 µM. Also, the “Effect on hepatic platinum accumulation” value in data set [2] is recorded as “did not observe a significant effect”.
